Measurements reported in patent US20260144788A1, “COMPOUND FOR SHP2 PROTEIN DEGRADATION AND MEDICAL USES THEREOF” (UBIX THERAPEUTICS, INC., priority 2022, published 2026).

Target: T1, SHP2 protein (Homo sapiens, UniProt Q06124)
T1 sequence (Q06124 1-593): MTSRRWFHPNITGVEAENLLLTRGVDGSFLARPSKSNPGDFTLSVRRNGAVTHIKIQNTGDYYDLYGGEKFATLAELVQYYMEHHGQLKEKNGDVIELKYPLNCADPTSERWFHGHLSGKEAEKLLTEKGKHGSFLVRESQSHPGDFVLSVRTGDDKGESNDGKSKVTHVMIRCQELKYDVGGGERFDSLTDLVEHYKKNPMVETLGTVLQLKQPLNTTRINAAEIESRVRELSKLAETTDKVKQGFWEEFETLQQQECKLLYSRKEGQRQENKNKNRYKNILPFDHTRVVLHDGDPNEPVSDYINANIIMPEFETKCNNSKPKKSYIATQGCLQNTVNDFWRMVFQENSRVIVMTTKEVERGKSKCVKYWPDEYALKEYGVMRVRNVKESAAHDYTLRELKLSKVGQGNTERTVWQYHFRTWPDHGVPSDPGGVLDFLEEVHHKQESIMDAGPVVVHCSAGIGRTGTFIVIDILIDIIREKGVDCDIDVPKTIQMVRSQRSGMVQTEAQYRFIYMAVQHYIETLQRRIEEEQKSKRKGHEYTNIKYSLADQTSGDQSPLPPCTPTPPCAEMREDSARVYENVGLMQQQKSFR
Assay: Measurement of SHP2 protein degradation in MV-4-11 cells (western blotting)
Format: cell-based
Parameters: endogenous in cells
Details: harvested after 24 hours
Outline: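 MV-4-11 cells in IMDM/5% FBS were exposed to compound at final 0.01, 0.1, 1 μM or 0.001, 0.01, 0.1 μM for 24 h, DMSO as negative control. BCA-normalised lysates were immunoblotted for SHP2 with GAPDH as loading control, read on LI-COR Odyssey.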

SHP2% degradation (0.01 μM)	SHP2% degradation (0.1 μM)	Structure (SMILES)
81.1%	99.7%	Cc1ncsc1-c1ccc(CNC(=O)[C@@H]2C[C@@H](O)CN2C(=O)[C@@H](NC(=O)C2(F)CC2)C(C)(C)C)c(O[C@H]2CC[C@H](C(=O)N3CC(Nc4nccc(Sc5cnc(N6CCC(C)(N)CC6)cn5)c4Cl)C3)CC2)c1 [Example 21, (2S,4R)—N-(2-(((1R,4S)-4-(3-((4-((5-(4-amino-4-methylpiperidin-1-yl)pyrazin-2-yl)thio)-3-chloropyridin-2-yl)amino)azetidine-1-carbonyl)cyclohexyl)oxy)-4-(4-methylthiazol-5-yl)benzyl)-1-((S)-2-(1-fluorocyclopropane-1-carboxamido)-3,3-dimethylbutanoyl)-4-hydroxypyrrolidine-2-carboxamide]
74.2%	99.8%	Cc1ncsc1-c1ccc(CNC(=O)[C@@H]2C[C@@H](O)CN2C(=O)[C@@H](NC(=O)C2(F)CC2)C(C)(C)C)c(O[C@H]2CC[C@H](C(=O)N3CCC(Nc4nccc(Sc5cnc(N6CCC(C)(CN)CC6)cn5)c4Cl)CC3)CC2)c1 [Example 23, (2S,4R)—N-(2-(((1R,4S)-4-(4-((4-((5-(4-(aminomethyl)-4-methylpiperidin-1-yl)pyrazin-2-yl)thio)-3-chloropyridin-2-yl)amino)piperidine-1-carbonyl)cyclohexyl)oxy)-4-(4-methylthiazol-5-yl)benzyl)-1-((S)-2-(1-fluorocyclopropane-1-carboxamido)-3,3-dimethylbutanoyl)-4-hydroxypyrrolidine-2-carboxamide]
83.1%	100.0%	Cc1ncsc1-c1ccc(CNC(=O)[C@@H]2C[C@@H](O)CN2C(=O)[C@@H](NC(=O)C2(F)CC2)C(C)(C)C)c(O[C@H]2CC[C@H](C(=O)N3CCC(Nc4nccc(Sc5cnc(N6CCC(C)(N)CC6)cn5)c4Cl)CC3)CC2)c1 [Example 24, (2S,4R)—N-(2-(((1R,4S)-4-(4-((4-((5-(4-amino-4-methylpiperidin-1-yl)pyrazin-2-yl)thio)-3-chloropyridin-2-yl)amino)piperidine-1-carbonyl)cyclohexyl)oxy)-4-(4-methylthiazol-5-yl)benzyl)-1-((S)-2-(1-fluorocyclopropane-1-carboxamido)-3,3-dimethylbutanoyl)-4-hydroxypyrrolidine-2-carboxamide]
52.3%	96.1%	Cc1ncsc1-c1ccc(CNC(=O)[C@@H]2C[C@@H](O)CN2C(=O)[C@@H](NC(=O)C2(F)CC2)C(C)(C)C)c(O[C@H]2CC[C@H](C(=O)N3CCN(c4nccc(Sc5cnc(N6CCC(C)(CN)CC6)cn5)c4Cl)CC3)CC2)c1 [Example 26, (2S,4R)—N-(2-(((1R,4S)-4-(4-(4-((5-(4-(aminomethyl)-4-methylpiperidin-1-yl)pyrazin-2-yl)thio)-3-chloropyridin-2-yl)piperazine-1-carbonyl)cyclohexyl)oxy)-4-(4-methylthiazol-5-yl)benzyl)-1-((S)-2-(1-fluorocyclopropane-1-carboxamido)-3,3-dimethylbutanoyl)-4-hydroxypyrrolidine-2-carboxamide]
97.7%	99.5%	CC(=O)N[C@H](C(=O)N1C[C@H](O)C[C@H]1C(=O)NCc1ccc(-c2scnc2C)cc1O[C@H]1CC[C@H](C(=O)N2CC(Nc3nccc(Sc4cnc(N5CCC(C)(CN)CC5)cn4)c3Cl)C2)CC1)C(C)(C)C [Example 38, (2S,4R)-1-((S)-2-acetamido-3,3-dimethylbutanoyl)-N-(2-(((1R,4S)-4-(3-((4-((5-(4-(aminomethyl)-4-methylpiperidin-1-yl)pyrazin-2-yl)thio)-3-chloropyridin-2-yl)amino)azetidine-1-carbonyl)cyclohexyl)oxy)-4-(4-methylthiazol-5-yl)benzyl)-4-hydroxypyrrolidine-2-carboxamide]

More lines, now with the values behind:

Structure (SMILES)	SHP2% degradation (0.01 μM)	SHP2% degradation (0.1 μM)
CC(=O)N[C@H](C(=O)N1C[C@H](O)C[C@H]1C(=O)NCc1ccc(-c2scnc2C)cc1O[C@H]1CC[C@H](C(=O)N2CC(Nc3cccc(Sc4cnc(N5CCC(C)(CN)CC5)cn4)c3Cl)C2)CC1)C(C)(C)C [Example 27, (2S,4R)-1-((S)-2-acetamido-3,3-dimethylbutanoyl)-N-(2-(((1R,4S)-4-(3-((3-((5-(4-(aminomethyl)-4-methylpiperidin-1-yl)pyrazin-2-yl)thio)-2-chlorophenyl)amino)azetidine-1-carbonyl)cyclohexyl)oxy)-4-(4-methylthiazol-5-yl)benzyl)-4-hydroxypyrrolidine-2-carboxamide]	95.8%	99.9%
CC(=O)N[C@H](C(=O)N1C[C@H](O)C[C@H]1C(=O)NCc1ccc(-c2scnc2C)cc1O[C@H]1CC[C@H](C(=O)N2CC(Nc3cccc(Sc4cnc(N5CCC6(CC5)CO[C@@H](C)[C@H]6N)cn4)c3Cl)C2)CC1)C(C)(C)C [Example 29, (2S,4R)-1-((S)-2-acetamido-3,3-dimethylbutanoyl)-N-(2-(((1r,4S)-4-(3-((3-((5-((3S,4S)-4-amino-3-methyl-2-oxa-8-azaspiro[4.5]decan-8-yl)pyrazin-2-yl)thio)-2-chlorophenyl)amino)azetidine-1-carbonyl)cyclohexyl)oxy)-4-(4-methylthiazol-5-yl)benzyl)-4-hydroxypyrrolidine-2-carboxamide]	97.2%	99.9%
CC(=O)N[C@H](C(=O)N1C[C@H](O)C[C@H]1C(=O)NCc1ccc(-c2scnc2C)cc1O[C@H]1CC[C@H](C(=O)N2CC(Nc3cccc(Sc4cnc(N5CCC6(CC5)Cc5ccccc5[C@H]6N)cn4)c3Cl)C2)CC1)C(C)(C)C [Example 30, (2S,4R)-1-((S)-2-acetamido-3,3-dimethylbutanoyl)-N-(2-(((1R,4S)-4-(3-((3-((5-((S)-1-amino-1,3-dihydrospiro[indene-2,4′-piperidin]-1′-yl)pyrazin-2-yl)thio)-2-chlorophenyl)amino)azetidine-1-carbonyl)cyclohexyl)oxy)-4-(4-methylthiazol-5-yl)benzyl)-4-hydroxypyrrolidine-2-carboxamide]	86.1%	99.9%
CC(=O)N[C@H](C(=O)N1C[C@H](O)C[C@H]1C(=O)NCc1ccc(-c2scnc2C)cc1O[C@H]1CC[C@H](C(=O)N2CCC(Nc3nccc(Sc4cnc(N5CCC(C)(CN)CC5)cn4)c3Cl)CC2)CC1)C(C)(C)C [Example 41, (2S,4R)-1-((S)-2-acetamido-3,3-dimethylbutanoyl)-N-(2-(((1R,4S)-4-(4-((4-((5-(4-(aminomethyl)-4-methylpiperidin-1-yl)pyrazin-2-yl)thio)-3-chloropyridin-2-yl)amino)piperidine-1-carbonyl)cyclohexyl)oxy)-4-(4-methylthiazol-5-yl)benzyl)-4-hydroxypyrrolidine-2-carboxamide]	98.2%	99. %
Cc1ncsc1-c1ccc(CNC(=O)[C@@H]2C[C@@H](O)CN2C(=O)[C@@H](NC(=O)C2(F)CC2)C(C)(C)C)c(OCCN2CCC(C(=O)N3CC(Nc4cccc(Sc5cnc(N6CCC(C)(CN)CC6)cn5)c4Cl)C3)CC2)c1 [Example 50, (2S,4R)—N-(2-(2-(4-(3-((3-((5-(4-(aminomethyl)-4-methylpiperidin-1-yl)pyrazin-2-yl)thio)-2-chlorophenyl)amino)azetidine-1-carbonyl)piperidin-1-yl)ethoxy)-4-(4-methylthiazol-5-yl)benzyl)-1-((S)-2-(1-fluorocyclopropane-1-carboxamido)-3,3-dimethylbutanoyl)-4-hydroxypyrrolidine-2-carboxamide]	67.3%	97.6%
